# According to patent US20150299188A1, “HETEROCYCLIC COMPOUND” (priority 2012, published 2015):
# Test system: FLAP (5-lipoxygenase activating protein)
# Assay: In vitro binding test: displacement of [3H]-7-chloro-3-(5-((3-fluoropyridin-2-yl)methoxy)-2-methylphenyl)-3,4-dihydroquinazolin-2(1H)-one from Sf9 microsome fractions
# Parameters: species or system human and mouse
# Conditions: Sf9 microsome fractions expressing FLAP; 100% = radioligand binding with 10 μM sodium 3-(3-(tert-butylsulfanyl)-1-(4-chlorobenzyl)-5-isopropyl-1H-indol-2-yl)-2,2-dimethylpropanoate, 0% = DMSO; test compound concentration not given
# Outline: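 Sf9 microsomes expressing human or mouse FLAP (2 μg/mL) preincubated with compound 10 min at room temperature, then 120 nM tritiated quinazolinone ligand added for 60 min; buffer 100 mM Tris-HCl pH 7.5 with NaCl, EDTA, DTT, glycerol, Tween20. Bound ligand filtered and counted by scintillation; 10 μM indole propanoate defines 100% inhibition, DMSO 0%.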
row,Compound,inhibitory rate (%)
1,"COc1cccc2c1CN(c1cc(OCc3ncccc3F)ccc1C)C(=O)N2 [Example 308, 3-(5-((3-fluoropyridin-2-yl)methoxy)-2-methylphenyl)-5-methoxy-3,4-dihydroquinazolin-2(1H)-one]",85
2,"Cc1ccc(OCc2c(F)cccc2F)cc1N1Cc2[nH]ncc2NC1=O [Example 309, 6-(5-((2,6-difluorobenzyl)oxy)-2-methylphenyl)-1,4,6,7-tetrahydro-5H-pyrazolo[4,3-d]pyrimidin-5-one]",51
3,"Cc1ccc(OCc2ncccc2F)cc1N1Cc2c(cc[nH]c2=O)NC1=O [Example 310, 3-(5-((3-fluoropyridin-2-yl)methoxy)-2-methylphenyl)-4,6-dihydropyrido[4,3-d]pyrimidine-2,5(1H,3H)-dione]",95
4,"Cc1ccc(OCc2c(F)cccc2F)cc1N1Cc2cnn(C)c2NC1=O [Example 311, 5-(5-((2,6-difluorobenzyl)oxy)-2-methylphenyl)-1-methyl-1,4,5,7-tetrahydro-6H-pyrazolo[3,4-d]pyrimidin-6-one]",69
5,"O=C1Nc2ccccc2CN1c1cc(OCc2ncccc2F)ccc1CNC1CC1 [Example 312, 3-(2-((cyclopropylamino)methyl)-5-((3-fluoropyridin-2-yl)methoxy)phenyl)-3,4-dihydroquinazolin-2(1H)-one]",86
6,"O=C1Nc2ccccc2CN1c1cc(OCc2ncccc2F)ccc1CN1CCOCC1 [Example 313, 3-(5-((3-fluoropyridin-2-yl)methoxy)-2-(morpholin-4-ylmethyl)phenyl)-3,4-dihydroquinazolin-2(1H)-one]",64
7,"CCCN1CCN(Cc2ccc(OCc3ncccc3F)cc2N2Cc3ccccc3NC2=O)CC1 [Example 314, 3-(5-((3-fluoropyridin-2-yl)methoxy)-2-((4-propylpiperazin-1-yl)methyl)phenyl)-3,4-dihydroquinazolin-2(1H)-one]",58
8,"CC(C)(O)c1ccc2c(c1)NC(=O)N(c1cc(OCc3c(F)cccc3F)ccc1Cc1ccccn1)C2 [Example 316, 3-(5-((2,6-difluorobenzyl)oxy)-2-(pyridin-2-ylmethyl)phenyl)-7-(2-hydroxypropan-2-yl)-3,4-dihydroquinazolin-2(1H)-one]",50
9,"O=C1Nc2cc(CO)ccc2CN1c1cc(OCc2c(F)cccc2F)ccc1Cc1ccccn1 [Example 317, 3-(5-((2,6-difluorobenzyl)oxy)-2-(pyridin-2-ylmethyl)phenyl)-7-(hydroxymethyl)-3,4-dihydroquinazolin-2(1H)-one]",54

# Next, values leading:
row,inhibitory rate (%),Compound
1,100,"COc1nccc2c1CN(c1cc(OCc3ncccc3F)ccc1C)C(=O)N2 [Example 307, 3-(5-((3-fluoropyridin-2-yl)methoxy)-2-methylphenyl)-5-methoxy-3,4-dihydropyrido[4,3-d]pyrimidin-2(1H)-one]"
2,103,"Cc1ccc(OCc2ncccc2F)cc1N1Cc2c(Br)cncc2NC1=O [Example 315, 5-bromo-3-(5-((3-fluoropyridin-2-yl)methoxy)-2-methylphenyl)-3,4-dihydropyrido[3,4-d]pyrimidin-2(1H)-one]"
3,62,"Cc1ccc(OCc2ncccc2F)cc1N1Cc2c(Cl)ncnc2NC1=O [Example 318, 5-chloro-3-(5-((3-fluoropyridin-2-yl)methoxy)-2-methylphenyl)-3,4-dihydropyrimido[4,5-d]pyrimidin-2(1H)-one]"
4,52,"COc1ncnc2c1CN(c1cc(OCc3ncccc3F)ccc1C)C(=O)N2 [Example 319, 3-(5-((3-fluoropyridin-2-yl)methoxy)-2-methylphenyl)-5-methoxy-3,4-dihydropyrimido[4,5-d]pyrimidin-2(1H)-one]"
